# Laboratory results reported in patent US20090105278A1, “Selective inhibitors of human corticosteroid syntheses” (Universitat Des Saarlandes, priority 2004, published 2009).
# Structures can show the parent of a compound that is named as a salt.
# Target: T1, bovine adrenal CYP11B (Bos taurus, UniProt P15150)
# T1 sequence (P15150 25-503): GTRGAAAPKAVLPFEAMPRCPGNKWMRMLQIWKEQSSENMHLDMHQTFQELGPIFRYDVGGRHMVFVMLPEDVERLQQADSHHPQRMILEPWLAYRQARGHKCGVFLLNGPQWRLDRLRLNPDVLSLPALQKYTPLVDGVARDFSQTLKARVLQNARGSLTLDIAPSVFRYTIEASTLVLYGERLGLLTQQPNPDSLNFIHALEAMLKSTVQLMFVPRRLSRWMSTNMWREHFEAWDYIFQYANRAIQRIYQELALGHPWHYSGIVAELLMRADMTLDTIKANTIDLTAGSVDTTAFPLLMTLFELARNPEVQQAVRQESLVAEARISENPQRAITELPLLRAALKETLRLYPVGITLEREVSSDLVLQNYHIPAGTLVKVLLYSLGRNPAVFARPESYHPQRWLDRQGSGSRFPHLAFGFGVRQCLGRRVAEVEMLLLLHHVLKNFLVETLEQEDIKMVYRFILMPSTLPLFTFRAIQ
# Test: Percent inhibition of bovine CYP11B (adrenal mitochondria)
# Settings: read-out: % Inhibition bovine bCYP11B, bovine adrenal mitochondria, 1 mg/ml protein; corticosterone substrate 200 μM; inhibitor 1 μM
# Experimental: Bovine adrenal glands obtained freshly after slaughtering were stored in ice cold Tris-sucrose buffer (0.25 M sucrose, 0.05 M Tris; pH 7.4) until processed. After removing the appending adipose tissue, the adrenal medulla was carefully separated from the adrenal cortex using scissors. The pieces of adrenal cortex were coarsely comminuted with scissors, washed with Tris-sucrose buffer, weighed and finely comminuted in the above buffer (2 ml per g of tissue) with a hand mixer. Thereafter, the tissue was homogenized with an Ultra-Turrax mixer. For separating coarse cell debris and the nuclei, the homogenizate was centrifuged twice for 15 min at 900 g and 4° C. The supernatant was subsequently centrifuged for 35 min at 11,000 g for recovering the mitochondrial fraction. For purifying the mitochondrial fraction, the precipitate was resuspended in Tri-sucrose buffer and again centrifuged at 11,000 g for 35 min. This washing step was performed two times in total. After the last centrifugation, the pellet was resuspended in Tris-sucrose buffer containing 0.001 M EDTA and frozen at −70° C.
# The substrate corticosterone was dissolved in methanol and diluted with Tris buffer to a final concentration of 200 μM. The inhibitors were also dissolved in methanol and diluted with buffer to a final concentration of 1 μM. […] Corticosterone (200 μM) was incubated with inhibitor (1 μM) and mitochondrial enzyme (0.5 mg/0.5 ml) with the addition of a regenerating system consisting of NADP^+ (1 mM), glucose-6-phosphate (7 mM) and glucose-6-Phosphate dehydrogenase (1 IU/0.5 ml). Up to 5 inhibitors per test could be incubated in duplicate. […] After preincubation for 5 minutes (30° C.; water bath), the reaction was started by adding mitochondrial suspension. […] The blind values were admixed with 250 μl of HCl before the enzyme was pipetted in. The steroids were separated off by shaking with 1 ml of ethyl acetate (10 min). After centrifugation (15,000 g, 10 min), 900 μl of the organic phase was shaken with 250 μl 1 N NaOH (10 min), and 800 μl of supernatant was again washed with 250 μl of buffer. […] 18-OH-corticosterone (retention time: 10 min) and corticosterone (retention time: 21 min) were separated. The height of the 18-OH-corticosterone peak was used for evaluation. The percent inhibition of the 18-hydroxylation of corticosterone by the inhibitors was based on the mediums of the control incubation, taking the blind values into account.
row,SMILES,inhibition at 1 µM [%]
1,"CC(=O)N1CCN(c2ccc(OCC3COC(Cn4ccnc4)(c4ccc(Cl)cc4Cl)O3)cc2)CC1 (stereo not drawn) [Ketoconazole, reference compound]",78
2,"Fc1ccc2c(c1)CC/C2=C\c1cnc[nH]1 [Compound 47a, 5-[(E)-(5-Fluoro-2,3-dihydro-1H-indene-1-ylidenemethyl]-1H-imidazolium chloride]",67

# Tested on: not given
# Test: not given
# Settings: not given
row,SMILES,melting point [°C]
1,Cl.N#Cc1ccc2c(c1)/C(=C/c1cnc[nH]1)CCC2,217
2,"Fc1ccc2c(c1)CC/C2=C/c1cccnc1 (as salt: hydrochloride) [Compound 5b, 3-[(Z)-(5-Fluoro-2,3-dihydro-1H-indane-1-ylidene)methyl]pyridine Hydrochloride]",245
3,"C(=C1\CCc2ccccc21)/c1cnc[nH]1 (as salt: oxalate) [Compound 42b, 5-[(Z)-2,3-Dihydro-1H-ind-1-ylidenemethyl]-1H-imidazolium oxalate]",196
4,"C(=C1/CCc2ccccc21)/c1cnc[nH]1 (as salt: hydrochloride) [Compound 42a, 5-[(E)-2,3-Dihydro-1H-indane-1-ylidenemethyl]-1H-imidazole]",148 to 151
5,"Fc1ccc2c(c1)CC/C2=C\c1cccnc1 (as salt: hydrochloride) [Compound 5a, 3-[(E)-(5-Fluoro-2,3-dihydro-1H-indane-1-ylidene)methyl]pyridine Hydrochloride]",245
6,"Brc1ccc2c(c1)CC/C2=C\c1ccncc1 (as salt: hydrochloride) [Compound 10a, 4-[(E)-(5-Bromo-2,3-dihydro-1H-indane-1-ylidene)methyl]pyridine Hydrochloride]",266
7,COc1cc2c(cc1OC)/C(=C/c1cccnc1)CCC2.Cl,197
8,"Clc1ccc2c(c1)CC/C2=C\c1ccncc1 (as salt: hydrochloride) [Compound 8a, 4-[(E)-(5-Chloro-2,3-dihydro-1H-indane-1-ylidene)methyl]pyridine Hydrochloride]",213
9,"Fc1ccc2c(c1)CC/C2=C\c1ccncc1 (as salt: hydrochloride) [Compound 6a, 4-[(E)-(5-Fluoro-2,3-dihydro-1H-indane-1-ylidene)methyl]pyridine Hydrochloride]",224
10,C(=C1c2ccccc2-c2ccccc21)c1cccnc1.Cl,241
11,"Fc1ccc2c(c1)CC/C2=C\c1cnc[nH]1 (as salt: chloride) [Compound 47a, 5-[(E)-(5-Fluoro-2,3-dihydro-1H-indene-1-ylidenemethyl]-1H-imidazolium chloride]",245
12,"Fc1ccc2c(c1)CC/C2=C/c1ccncc1 (as salt: hydrochloride) [Compound 6b, 4-[(Z)-(5-Fluoro-2,3-dihydro-1H-indane-1-ylidene)methyl]pyridine Hydrochloride]",223

# Results, then the molecule that gave them:
row,melting point [°C],SMILES
1,234,"Clc1ccc2c(c1)CC/C2=C\c1cccnc1 (as salt: hydrochloride) [Compound 7a, 3-[(E)-(5-Chloro-2.3-dihydro-1H-indane-1-ylidene)methyl]pyridine Hydrochloride]"
2,238,"Clc1ccc2c(c1)CC/C2=C/c1cccnc1 (as salt: hydrochloride) [Compound 7b, 3-[(Z)-(5-Chloro-2,3-dihydro-1H-indane-1-ylidene)methyl]pyridine Hydrochloride]"
3,231,"Cc1cccc2c1CC/C2=C\c1cccnc1 (as salt: hydrochloride) [Compound 23a, 3-[(E)-(4-Methyl-2,3-dihydro-1H-indane-1-ylidene)methyl]pyridine Hydrochloride]"
4,220,"COc1ccc2c(c1)CC/C2=C/c1cccnc1 (as salt: hydrochloride) [Compound 11b, 3-[(Z)-(5-Methoxy-2,3-dihydro-1H-indane-1-ylidene)methyl]pyridine Hydrochloride]"
5,208,"c1cncc(-c2ccc3cccc4c3c2CC4)c1 (as salt: salt) [Compound 50, 3-(1,2-Dihydroacenaphthylene-3-yl)pyridine]"
6,201,"Fc1ccc2c(c1)CC/C2=C/c1cccc2cnccc12 (as salt: hydrochloride) [Compound 30b, 5-[(Z)-(5-Fluoro-2,3-dihydro-1H-indane-1-ylidene)methyl]isoquinoline Hydrochloride]"
7,197,COc1cc2c(cc1OC)/C(=C/c1ccncc1)CCC2.Cl
8,243,"Brc1ccc2c(c1)CC/C2=C/c1cccnc1 (as salt: hydrochloride) [Compound 9b, 3-[(Z)-(5-Bromo-2,3-dihydro-1H-indane-1-ylidene)methyl]pyridine Hydrochloride]"

# Target: T2, human CYP17 (Homo sapiens, UniProt P05093)
# T2 construct: made in house; host or cells: E. coli pJL17/OR (membrane fraction)
# T2 sequence (P05093 1-508): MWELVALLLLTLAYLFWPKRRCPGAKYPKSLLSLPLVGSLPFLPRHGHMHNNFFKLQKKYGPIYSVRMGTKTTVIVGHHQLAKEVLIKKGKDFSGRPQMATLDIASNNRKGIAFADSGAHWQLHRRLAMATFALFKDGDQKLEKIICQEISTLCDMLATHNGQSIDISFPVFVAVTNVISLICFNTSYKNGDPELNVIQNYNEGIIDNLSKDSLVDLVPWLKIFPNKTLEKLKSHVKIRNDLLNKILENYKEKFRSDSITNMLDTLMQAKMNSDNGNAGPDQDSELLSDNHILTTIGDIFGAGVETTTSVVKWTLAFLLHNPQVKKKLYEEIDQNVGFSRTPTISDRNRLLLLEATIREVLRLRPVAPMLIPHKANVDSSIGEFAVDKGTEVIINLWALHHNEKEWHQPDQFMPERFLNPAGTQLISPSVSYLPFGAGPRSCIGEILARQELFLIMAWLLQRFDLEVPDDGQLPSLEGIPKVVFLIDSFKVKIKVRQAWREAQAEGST
# Test: Percent inhibition of CYP17 (membrane fraction of E. coli pJL17/OR)
# Format: biochemical
# Settings: E. coli which expresses human CYP17; 5 mg/ml protein; progesterone substrate 2.5 μM; inhibitor 2.5 μM; read-out: % Inhibition human CYP17
# Experimental: The recombinantly altered E. coli strain pJL17/OR, in which human CYP17 and rat NADPH-P450-reductase were coexpressed, was grown and stored according to the method of Ehmer et al. (Ehmer, P. B. et al., J. Steroid Biochem. Mol. Biol. 75: 57-63 (2000)). For isolating the membrane fraction, 5 ml of the bacterial cell suspension with an OD578 of 50 was washed with phosphate buffer (0.05 M; pH 7.4; 1 mM MgCl2; 0.1 mM EDTA and 0.1 mM DTT). The bacteria were removed by centrifugation and resuspended in 10 ml of ice cold TES buffer (0.1 M tris-acetate; pH 7.8; 0.5 mM EDTA; 0.5 M sucrose). Four milligrams of lysozyme in 10 ml of ice cold water was added to obtain a final concentration of 0.2 mg/ml. This was followed by incubation for 30 minutes under continued shaking on ice. The spheroblasts were obtained by a renewed centrifugation step at 12,000 g for 10 min and again resuspended in 3 ml of ice cold phosphate buffer (composition see above, additionally 0.5 mM PMSF).
# After freezing and thawing, the cells were lysed on ice with an ultrasonic disintegrator. The whole cells and the cell debris were centrifuged off at 3000 g for 7 min. The supernatant was again centrifuged at 50,000 g for 20 min at 4° C. A membrane pellet sedimented and was resuspended in 2 ml of phosphate buffer (composition see above) with […] by means of an Ultra-Turrax mixer. […] Aliquots with an approximate protein concentration of 5 mg/ml were stored at −70° C. until use.
# Control incubations were performed in parallel with 5 μl DMSO without urea. The reaction was started by adding 50 μl of a membrane suspension diluted 1 to 5 in phosphate buffer (0.8 to 1 mg of protein per ml). After thoroughly mixing the components, the mixture was incubated at 37° C. for 30 min.
# The steroids were extracted with 1 ml of EtOAc. […] After the centrifugation, 800 μl of the organic phase was removed, placed into a new vessel and evaporated to dryness. The samples were dissolved in 50 μl of a water-methanol mixture (1:1) and analyzed by HPLC. The substrate conversion was calculated from the ratio of the areas of the product peaks (17α-hydroxyprogesterone and 16α-hydroxyprogesterone) to that of the substrate peak. The activity of the inhibitors was calculated from the reduced substrate conversion after the addition of inhibitors in accordance with the following formula: […]
row,SMILES,inhibition at 2.5 µM [%]
1,"Fc1ccc2c(c1)CC/C2=C\c1cnc[nH]1 [Compound 47a, 5-[(E)-(5-Fluoro-2,3-dihydro-1H-indene-1-ylidenemethyl]-1H-imidazolium chloride]",16

# Target: T3, human CYP11B2 (Homo sapiens, UniProt P19099)
# T3 sequence (P19099 25-503): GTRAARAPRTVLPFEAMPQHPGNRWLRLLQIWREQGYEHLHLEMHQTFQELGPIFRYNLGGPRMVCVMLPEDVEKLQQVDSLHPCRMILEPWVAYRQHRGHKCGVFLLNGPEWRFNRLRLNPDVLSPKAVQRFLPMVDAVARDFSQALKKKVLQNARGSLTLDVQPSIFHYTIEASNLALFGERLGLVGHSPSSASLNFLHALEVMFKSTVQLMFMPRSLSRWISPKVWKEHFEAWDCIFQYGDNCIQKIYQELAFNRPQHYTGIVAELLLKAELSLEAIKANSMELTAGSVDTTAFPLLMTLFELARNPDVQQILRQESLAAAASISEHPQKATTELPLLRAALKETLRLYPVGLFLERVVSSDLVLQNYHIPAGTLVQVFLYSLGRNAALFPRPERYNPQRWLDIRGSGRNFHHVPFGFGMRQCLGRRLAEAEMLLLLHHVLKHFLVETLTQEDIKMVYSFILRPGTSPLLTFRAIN
# Test: Screening test in transgenic fission yeast (S. pombe PE1) expressing human CYP11B2
# Format: cell-based
# Set-up: expressed in transfected cells
# Settings: S. pombe cells which express human CYP11B2; deoxycorticosterone substrate 100 nM; inhibitor 500 nM; read-out: % Inhibition human hCYP11B2
# Experimental: 492.5 μl of this cell suspension was admixed with 5 μl of inhibitor solution (50 μM of the compound to be tested in ethanol or DMSO) and incubated at 32° C. for 15 min. Controls were admixed with 5 μl of ethanol. […] The test was quenched by extracting the sample with 500 μl of EtOAc. After centrifugation (10,000 g, 2 min), the EtOAc phase was removed and evaporated to dryness. […] The reaction of the substrate to form corticosterone was analyzed by HPTLC (see below).
# The quantification of the spots for the substrate deoxycorticosterone and the products corticosterone (and, if detectable, 18-hydroxycorticosterone and aldosterone) was effected with the related evaluation program AIDA. […] The calculation of the conversion rate was effected according to equation 1.
# The plate was developed twice with the mobile solvent chloroform:methanol:water (300:20:1). Unlabeled 11-deoxycorticosterone and corticosterone were applied as a reference for the CYP11B1 reaction. For the CYP11B2 reaction, 11-deoxycorticosterone, corticosterone, 18-hydroxycorticosterone and aldosterone were used as references. The detection of the unlabeled references was effected at 260 nm. Subsequently, imaging plates (BAS MS2340, for ^14C samples, Raytest, Straubenhardt, Germany) were exposed to the HPTLC plates for 48 h. The imaging plates were scanned with the phosphoimager system Fuji FLA 3000 (Raytest, Straubenhardt, Germany), and the steroids were quantified.
row,SMILES,inhibition at 0.5 µM [%]
1,"Fc1ccc2c(c1)CC/C2=C\c1cnc[nH]1 [Compound 47a, 5-[(E)-(5-Fluoro-2,3-dihydro-1H-indene-1-ylidenemethyl]-1H-imidazolium chloride]",59
